Laboratory results: ChEMBL document CHEMBL1201862, “PubChem BioAssay data set” (2004)
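Each compound was tested at five concentrations against cells in 96-well plates for 48 hours. Abbreviation: GI50, concentration required for 50% inhibition of growth.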 Activity calls are given as the source filed them. No stated cut-off is given here; in the data, active = GI50 up to about 1.1 µM and inactive = higher.

How the values were obtained:
Test in all cases: NCI anticancer screen, dose series, 48 h
OVCAR-8 = tested on: OVCAR-8
OVCAR-3 = tested on: OVCAR-3
OVCAR-4 = tested on: OVCAR-4
HT-29 = tested on: HT-29
NCI-H522 = tested on: NCI-H522
K562 = tested on: K562
SF-539 = tested on: SF-539
SK-MEL-2 = tested on: SK-MEL-2
IGROV-1 = tested on: IGROV-1
EKVX = tested on: EKVX
SW-620 = tested on: SW-620
U-251 = tested on: U-251
MOLT-4 = tested on: MOLT-4
HCT-116 = tested on: HCT-116
LXFL 529 = tested on: LXFL 529
ACHN = tested on: ACHN
RPMI-8226 = tested on: RPMI-8226
SK-MEL-5 = tested on: SK-MEL-5
SR = tested on: SR

Compound | GI50 (OVCAR-8) | GI50 (OVCAR-3) | GI50 (OVCAR-4) | GI50 (HT-29) | GI50 (NCI-H522) | GI50 (K562) | GI50 (SF-539) | GI50 (SK-MEL-2) | GI50 (IGROV-1) | GI50 (EKVX) | GI50 (SW-620) | GI50 (U-251) | GI50 (MOLT-4) | GI50 (HCT-116) | GI50 (LXFL 529) | GI50 (ACHN) | GI50 (RPMI-8226) | GI50 (SK-MEL-5) | GI50 (SR)
O=P1(Oc2ccccc2)C(c2ccccc2)C(c2ccccc2)=NN1c1ccccc1 (stereo not given) | 37 µM (inactive) | 19.7 µM (inactive) | 31.6 µM (inactive) | 18.3 µM (inactive) | 19 µM (inactive) | 24.8 µM (inactive) | 18.4 µM (inactive) | 15.9 µM (inactive) | 26.2 µM (inactive) | 37.3 µM (inactive) | 21.5 µM (inactive) | 18 µM (inactive) | 22 µM (inactive) | 17.2 µM (inactive) | 19.8 µM (inactive) | 24.5 µM (inactive) |  |  | 
CC(C)OP(=O)(OC(C)C)/C(=N/Nc1ccccc1[N+](=O)[O-])NCCN/C(=N\Nc1ccccc1[N+](=O)[O-])P(=O)(OC(C)C)OC(C)C | 39.5 µM (inactive) | 42.7 µM (inactive) | 48.1 µM (inactive) |  | 31.8 µM (inactive) | 35.3 µM (inactive) | 38.1 µM (inactive) | 19.6 µM (inactive) | 27.9 µM (inactive) | 28.9 µM (inactive) | 35.5 µM (inactive) | 29.6 µM (inactive) | 43.2 µM (inactive) | 27.9 µM (inactive) | 19.5 µM (inactive) | 30.1 µM (inactive) | 28.2 µM (inactive) | > 10 µM (inactive) | 
Cc1cn(C2OC(C)(CO)C(O)C2O)c(=O)[nH]c1=O (stereo not given) | > 100 µM (inactive) | > 100 µM (inactive) | > 100 µM (inactive) | > 100 µM (inactive) | > 100 µM (inactive) | > 100 µM (inactive) | > 100 µM (inactive) | > 100 µM (inactive) | > 100 µM (inactive) |  | > 100 µM (inactive) | > 100 µM (inactive) | > 100 µM (inactive) | > 100 µM (inactive) | > 100 µM (inactive) | > 100 µM (inactive) | > 100 µM (inactive) | > 100 µM (inactive) | > 100 µM (inactive)
C=C(NC(=O)C(=C)NC(=O)c1csc(C2=NC3c4csc(n4)C4NC(=O)c5csc(n5)C(C(C)(O)C(C)O)NC(=O)C5CSC(=N5)/C(=C/C)NC(=O)C(C(C)O)NC(=O)c5csc(n5)C3(CC2)NC(=O)C(C)NC(=O)C(=C)NC(=O)C(C)NC(=O)C(C(C)CC)NC2C=Cc3c(C(C)O)cc(nc3C2O)C(=O)OC4C)n1)C(N)=O (stereo not given) |  | 1.75 µM (inactive) | 19.9 µM (inactive) | 1.43 µM (inactive) | 0.287 µM (active) | 0.726 µM (active) | 1.73 µM (inactive) | 1.65 µM (inactive) | 9.06 µM (inactive) | 18.2 µM (inactive) | 0.412 µM (active) | 1.57 µM (inactive) |  | 0.51 µM (active) | 0.449 µM (active) | 2.32 µM (inactive) | 0.644 µM (active) | 1.34 µM (inactive) | 0.302 µM (active)
N=C(N)NS(=O)(=O)c1ccc(NC(=O)c2ccc(Cl)c3c(Nc4ccc(S(=O)(=O)N=C(N)N)cc4)c4ccccc4nc23)cc1 | > 100 µM (inactive) | 32.2 µM (inactive) | > 100 µM (inactive) | > 100 µM (inactive) | 38.2 µM (inactive) | 38.1 µM (inactive) | 53.7 µM (inactive) | 39.5 µM (inactive) | 76.4 µM (inactive) | 56.8 µM (inactive) | 56.2 µM (inactive) | 76.7 µM (inactive) | > 100 µM (inactive) |  | 52.8 µM (inactive) | 95.5 µM (inactive) | 85.1 µM (inactive) | > 10 µM (inactive) | 
[O-][n+]1c2c([n+]([O-])c3ccccc31)CCCCCCCCCC2 |  | > 100 µM (inactive) |  | > 100 µM (inactive) | 77.1 µM (inactive) | 69.7 µM (inactive) | > 100 µM (inactive) | > 100 µM (inactive) | > 100 µM (inactive) | > 100 µM (inactive) | > 100 µM (inactive) | > 100 µM (inactive) | 45.5 µM (inactive) | > 100 µM (inactive) | 68.1 µM (inactive) | > 100 µM (inactive) | > 100 µM (inactive) |  | 63.4 µM (inactive)
COC1=C2C[C@H](O)C(C)C[C@@]2(OC)OC1=O (stereo not given in full) |  | > 100 µM (inactive) | > 100 µM (inactive) | > 100 µM (inactive) | > 100 µM (inactive) | > 100 µM (inactive) | > 100 µM (inactive) | > 100 µM (inactive) | > 100 µM (inactive) |  | > 100 µM (inactive) | > 100 µM (inactive) | > 100 µM (inactive) | > 100 µM (inactive) | > 100 µM (inactive) |  | > 100 µM (inactive) | > 100 µM (inactive) | 
O=c1ncccn1C1OC(CO)C(O)C1O (stereo not given) | > 100 µM (inactive) |  | > 100 µM (inactive) | > 100 µM (inactive) | > 100 µM (inactive) | > 100 µM (inactive) |  | > 100 µM (inactive) | > 100 µM (inactive) | > 100 µM (inactive) | > 100 µM (inactive) | > 100 µM (inactive) |  | > 100 µM (inactive) | > 100 µM (inactive) | > 100 µM (inactive) | > 100 µM (inactive) |  | 
